In brackets after ≈: the same amount, converted by molar mass. Like-named read-outs stand apart in the source and are kept apart here.
What was measured:
[1] = target: cytochrome P450 2C9-isoenzyme (Homo sapiens (Human), UniProt P11712); assay: Inhibition of CYP-2C9 (diclofenac hydroxylation, human liver microsomes); type: in vitro ADME; conditions: diclofenac 10 μM, 37° C.
Protocol: (§1) All assays are carried out on a robotic system in 96 well plates. The final incubation volume contains TRIS buffer (0.1 M), MgCl2 (5 mM), human liver microsomes (0.1 mg/mL), diclofenac (10 μM) and the test compound at five different concentrations or no compound (high control) in duplicate (e.g., highest concentration 10-50 μM with subsequent serial 1:4 dilutions). Following a short preincubation period, reactions are started with the cofactor (NADPH, 1 mM) and stopped by cooling the incubation down to 8° C. and subsequently by addition of one volume of acetonitrile. An internal standard solution—the stable isotope ^13C6-hydroxydiclofenac—is added after quenching of incubations. Peak area analyte (=metabolite formed) and internal standard is determined by LC-MS/MS. The resulting peak area ratio analyte to internal standard in these incubations is compared to a control activity containing no test compound. Within each of the assay runs, the IC50 of a positive control inhibitor (sulfaphenazole) is determined.

[2] = Chemical stability (degradation kinetics) in acidic aqueous media, HPLC recovery; type: physicochemical; conditions: for Amount of degradation after 2 h: pH ca. 1.2, 37° C., acetonitrile/0.1 M aqueous HCl (2:3); for Chemical stability at pH ca. 1.2: degradation after 2 h at 37° C.: pH ca. 1.2, 2 h
Protocol: Degradation kinetics is used to simulate chemical stability of compounds in the acidic part of the gastro intestinal tract. […] Their application as medical drugs to treat human diseases is therefore less restricted and troublesome.
The chemical stability of the compounds of the invention at pH value of ca. 1.2 is determined as follows:
Compound is dissolved in an HPLC vial either in a mixture of acetonitrile/0.1 M aqueous HCl (2:3; pH ca. 1.2) or in a mixture of acetonitrile/Mcllvaine buffer pH 7.4 (2:3) to get a concentration of approximately 0.25 mg/ml. The vial was then transferred into an HPLC autosampler system and maintained at a temperature of 37° C. A first sample is taken and injected immediately into a standard HPLC system with a UV DAD detector. Further samples are injected after 2, 4, 6, 8 and 10 hours. Amount of degraded compound is measured by determining the recovery rate of compound [%] for each injection using an HPLC standard gradient method. Therefore the peak area of the main peak for the first injection (AUt0) is determined and set as 100%. Peak area of the main peak is determined also for the further injections (AUtn, n=2, 4, 6, 8, 10) and expressed as fraction of […] [%].

human GPR40 receptor = human GPR40 receptor (Homo sapiens (Human), UniProt O14842); assay: IP1 accumulation measurements using the IPOne assay system; type: cell-based
Protocol: IP1 accumulation measurements using the IPOne assay system—1321N1 cells stably expressing human GPR40 receptor (Euroscreen, Belgium) are seeded 24 h before the assay in white 384-well plates in culture medium containing 10% FCS, 1% Na-Pyruvate and 400 μg/mL G418. IP1 is assayed according to the manufacturer's description (Cisbio Bioassays, France). In brief, the assay is started by substitution of the culture medium by stimulation buffer (Hepes 10 mM, CaCl2 1 mM, MgCl2 0.5 mM, KCl 4.2 mM, NaCl 146 mM, glucose 5.5 mM and LiCl 50 mM, pH 7.4). Cells are stimulated for 1 h at 37° C., 5% CO2 by addition of the compounds that are diluted in stimulation buffer containing LiCl. Assays are stopped by adding HTRF-conjugates (IP1-d2 and Anti-IP1 cryptate Tb) and lysis buffer, provided by the manufacturer. After an incubation time of 1 h at room temperature plates are measured using an EnVision™, Perkin Elmer. The obtained fluorescence ratios at 665/615 […] are then used to calculate the pEC50 values using Assay Explorer 3.3 Software (Accelrys, Inc.) by interpolation using an IP1 reference curve and subsequent sigmoidal curve fitting allowing for a variable hill slope.

[3] = target: cytochrome P450 2C8-isoenzyme (Homo sapiens (Human), UniProt P10632); assay: Inhibition of CYP-2C8 (amodiaquine deethylation, human liver microsomes); type: in vitro ADME; conditions: amodiaquine 1 μM, 37° C.
Protocol: as §1, with “microsomes (0.05” for “microsomes (0.1”, “mg/mL), amodiaquine (1” for “mg/mL), diclofenac (10”, “duplicate (e.g.” for “duplicate (e.g.,”, “isotope d5-desethylamodiaquine—is” for “isotope ^13C6-hydroxydiclofenac—is”, “inhibitor (Montelukast)” for “inhibitor (sulfaphenazole)”

[4] = Aqueous solubility in buffer vs acetonitrile/water, LC-UV; type: physicochemical; conditions: kinetic from dmso stock, pH 6.8 buffer, 24 h shaking, 2.5% DMSO
Protocol: The aqueous solubility of the compounds of the invention is determined by comparing the amount dissolved in buffer to the amount in an acetonitrile/water (1/1) solution. Starting from a 10 mM DMSO stock solution aliquots are diluted with acetonitrile/water (1/1) or buffer, respectively. After 24 h of shaking, the solutions are filtrated and analyzed by LC-UV. The amount dissolved in buffer is compared to the amount in the acetonitrile solution.
Solubility is usually being measured from 0.001 to 0.125 mg/mL at a DMSO concentration of 2.5%. If more than 90% of the compound is dissolved in buffer, the value is marked with “>”.

[5] = 1321N1 cells stably expressing human GPR40, IP1 accumulation, read-out: EC50
[6] = given as IC50, own-compound values equal the EC50 of Table 2, read-out: GPR40: IC50

Chain of cytochrome P450 2C8-isoenzyme (P10632 whole entry): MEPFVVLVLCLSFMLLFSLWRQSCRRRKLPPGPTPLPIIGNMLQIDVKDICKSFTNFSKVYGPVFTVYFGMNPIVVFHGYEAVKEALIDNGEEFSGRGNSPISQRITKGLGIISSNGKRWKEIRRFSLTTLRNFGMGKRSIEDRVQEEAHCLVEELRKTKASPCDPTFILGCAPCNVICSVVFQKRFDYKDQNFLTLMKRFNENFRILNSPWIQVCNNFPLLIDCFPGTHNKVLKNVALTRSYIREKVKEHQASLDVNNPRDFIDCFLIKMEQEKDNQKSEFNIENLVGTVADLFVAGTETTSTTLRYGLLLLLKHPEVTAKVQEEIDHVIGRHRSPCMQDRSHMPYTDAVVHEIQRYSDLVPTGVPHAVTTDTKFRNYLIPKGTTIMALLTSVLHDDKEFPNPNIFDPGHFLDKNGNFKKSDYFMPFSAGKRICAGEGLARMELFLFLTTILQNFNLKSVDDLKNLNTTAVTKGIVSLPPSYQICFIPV
Chain of human GPR40 receptor (O14842 whole entry): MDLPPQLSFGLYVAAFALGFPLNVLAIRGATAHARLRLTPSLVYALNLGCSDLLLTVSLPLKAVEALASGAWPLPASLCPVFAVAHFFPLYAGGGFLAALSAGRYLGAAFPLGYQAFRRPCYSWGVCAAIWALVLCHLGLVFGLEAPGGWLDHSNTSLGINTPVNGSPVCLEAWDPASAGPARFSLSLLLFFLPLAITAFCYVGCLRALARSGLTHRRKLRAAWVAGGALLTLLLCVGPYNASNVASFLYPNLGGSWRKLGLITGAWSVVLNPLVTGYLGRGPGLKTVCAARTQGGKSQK
Chain of cytochrome P450 2C9-isoenzyme (P11712 whole entry): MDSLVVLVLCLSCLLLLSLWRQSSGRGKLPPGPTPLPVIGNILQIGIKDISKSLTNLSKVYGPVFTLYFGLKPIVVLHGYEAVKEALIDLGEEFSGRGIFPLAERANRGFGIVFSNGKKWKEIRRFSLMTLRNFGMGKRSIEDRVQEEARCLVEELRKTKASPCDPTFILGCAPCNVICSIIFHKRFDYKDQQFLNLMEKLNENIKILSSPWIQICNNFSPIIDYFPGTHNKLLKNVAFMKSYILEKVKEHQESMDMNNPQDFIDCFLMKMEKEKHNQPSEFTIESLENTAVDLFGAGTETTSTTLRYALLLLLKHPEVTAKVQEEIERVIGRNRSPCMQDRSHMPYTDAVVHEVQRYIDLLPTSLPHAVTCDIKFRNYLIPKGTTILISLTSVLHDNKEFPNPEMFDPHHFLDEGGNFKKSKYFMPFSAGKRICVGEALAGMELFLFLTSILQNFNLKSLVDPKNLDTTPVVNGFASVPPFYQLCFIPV

SMILES	IC50 [1]	Amount of degradation after 2 h [2]	Chemical stability at pH ca. 1.2: degradation after 2 h at 37° C. [2]	EC50 (human GPR40 receptor; [5])	EC50 (human GPR40 receptor; [6])	IC50 [3]	solubility at 24 h ([4]; buffer pH 6.8, aqueous buffer)	solubility at 24 h ([4]; aqueous buffer)
Cc1cc(OCCC(C)(C)O)cc(C)c1-c1ccc(F)c2c1CC[C@H]2Nc1cnc([C@H]2C[C@@H]2C(=O)O)cn1 [Example 2, (1S,2S)-2-(5-{(R)-7-Fluoro-4-[4-(3-hydroxy-3-methyl-butoxy)-2,6-dimethyl-phenyl]-indan-1-ylamino}-pyrazin-2-yl)-cyclopropanecarboxylic acid]	> 50000 nM	<0.5%	< 0.5%	4 nM	4 nM	> 50000 nM	87 µg/mL (≈ 167 µM)	–
Cc1cc(OCCCS(C)(=O)=O)cc(C)c1-c1ccc(F)c2c1CC[C@H]2Nc1cnc([C@H]2C[C@@H]2C(=O)O)cn1 [Example 4, (1S,2S)-2-(5-{(R)-7-Fluoro-4-[4-(3-methanesulfonyl-propoxy)-2,6-dimethyl-phenyl]-indan-1-ylamino}-pyrazin-2-yl)-cyclopropanecarboxylic acid]	> 50000 nM	<0.5%	< 0.5%	8 nM	8 nM	> 50000 nM	92 µg/mL (≈ 166 µM)	–
Cc1cc(OCCC(C)(C)O)cc(C)c1-c1cccc2c1CC[C@H]2Nc1cnc([C@H]2C[C@@H]2C(=O)O)cn1 [Example 7, (1S,2S)-2-(5-{(R)-4-[4-(3-Hydroxy-3-methyl-butoxy)-2,6-dimethyl-phenyl]-indan-1-ylamino}-pyrazin-2-yl)-cyclopropanecarboxylic acid]	–	<1%	–	4 nM	–	–	–	–
Cc1cc(OCCCS(C)(=O)=O)cc(C)c1-c1ccc(F)c2c1CC[C@H]2Oc1ccc([C@H]2C[C@@H]2C(=O)O)cc1 [Example 11 in WO 2013/178575, reference compound]	17000 nM	5%	5%	–	8 nM	12000 nM	–	–
Cc1cc(OCCC(C)(C)O)cc(C)c1-c1ccc(F)c2c1CC[C@H]2Oc1ccc([C@H]2C[C@@H]2C(=O)O)cc1 [Example 17 in WO 2013/178575, reference compound]	–	8%	8%	–	–	–	< 1 µg/mL	–
Cc1cccc(C)c1-c1ccc(F)c2c1CC[C@H]2Oc1ccc(C2CC2C(=O)O)cc1 (stereo partly drawn) [Example 33 in WO 2013/178575, reference compound]	–	8%	–	–	–	–	–	–
Cc1cc(-c2nnn(C)n2)cc(C)c1-c1ccc(F)c2c1CC[C@H]2Nc1cnc([C@H]2C[C@@H]2C(=O)O)cn1 [Example 35]	32000 nM	<1%	< 1%	–	2 nM	21000 nM	–	34 µg/mL (≈ 68.1 µM)
Cc1cc(-c2nnn(C)n2)cc(C)c1-c1ccc(F)c2c1CC[C@H]2Oc1ccc([C@H]2C[C@@H]2C(=O)O)cc1 [Example 45 in WO 2013/178575, reference compound]	–	–	–	–	–	–	< 1 µg/mL	–
Cc1c(C#N)cccc1-c1ccc(F)c2c1CC[C@H]2Oc1ccc([C@H]2C[C@@H]2C(=O)O)cc1 [Example 54 in WO 2013/178575, reference compound]	–	2.5%^	–	–	–	–	–	–

— patent US10253004B2, “Indanylaminopyrazinylcyclopropanecarboxylic acids, pharmaceutical compositions and uses thereof” (Boehringer Ingelheim International GmbH, priority 2017, dated 2019)
